The target of data set [1] is hERG (Homo sapiens, UniProt Q12809). The data set can be described thus: hERG % inhibition at 1 uM.
The nature of data set [2]: HLM T1/2. The following applies: human, liver microsomes. A general note: Microsomes from liver hold many membrane-bound enzymes, among them those of drug oxidation.
Data set [3] has as its target 5HT2B (Homo sapiens, UniProt P41595). In words: 5HT2B binding (Ki of Biological Data Table).

The structures appear in SMILES notation. Structures can show the parent of a compound that is named as a salt.

Sequence of 5HT2B (P41595 whole entry, species assumed): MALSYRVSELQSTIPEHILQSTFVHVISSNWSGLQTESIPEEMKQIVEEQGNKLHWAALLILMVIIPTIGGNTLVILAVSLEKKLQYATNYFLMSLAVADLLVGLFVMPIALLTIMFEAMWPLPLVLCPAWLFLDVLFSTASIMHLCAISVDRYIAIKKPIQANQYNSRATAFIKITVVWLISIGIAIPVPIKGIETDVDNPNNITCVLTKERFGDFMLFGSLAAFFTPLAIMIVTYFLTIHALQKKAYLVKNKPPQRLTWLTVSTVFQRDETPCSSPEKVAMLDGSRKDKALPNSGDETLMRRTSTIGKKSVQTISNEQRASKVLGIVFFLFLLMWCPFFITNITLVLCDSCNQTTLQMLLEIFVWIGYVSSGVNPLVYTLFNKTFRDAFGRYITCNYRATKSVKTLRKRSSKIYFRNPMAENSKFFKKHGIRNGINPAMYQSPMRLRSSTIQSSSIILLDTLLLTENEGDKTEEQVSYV
Sequence of hERG (Q12809 whole entry): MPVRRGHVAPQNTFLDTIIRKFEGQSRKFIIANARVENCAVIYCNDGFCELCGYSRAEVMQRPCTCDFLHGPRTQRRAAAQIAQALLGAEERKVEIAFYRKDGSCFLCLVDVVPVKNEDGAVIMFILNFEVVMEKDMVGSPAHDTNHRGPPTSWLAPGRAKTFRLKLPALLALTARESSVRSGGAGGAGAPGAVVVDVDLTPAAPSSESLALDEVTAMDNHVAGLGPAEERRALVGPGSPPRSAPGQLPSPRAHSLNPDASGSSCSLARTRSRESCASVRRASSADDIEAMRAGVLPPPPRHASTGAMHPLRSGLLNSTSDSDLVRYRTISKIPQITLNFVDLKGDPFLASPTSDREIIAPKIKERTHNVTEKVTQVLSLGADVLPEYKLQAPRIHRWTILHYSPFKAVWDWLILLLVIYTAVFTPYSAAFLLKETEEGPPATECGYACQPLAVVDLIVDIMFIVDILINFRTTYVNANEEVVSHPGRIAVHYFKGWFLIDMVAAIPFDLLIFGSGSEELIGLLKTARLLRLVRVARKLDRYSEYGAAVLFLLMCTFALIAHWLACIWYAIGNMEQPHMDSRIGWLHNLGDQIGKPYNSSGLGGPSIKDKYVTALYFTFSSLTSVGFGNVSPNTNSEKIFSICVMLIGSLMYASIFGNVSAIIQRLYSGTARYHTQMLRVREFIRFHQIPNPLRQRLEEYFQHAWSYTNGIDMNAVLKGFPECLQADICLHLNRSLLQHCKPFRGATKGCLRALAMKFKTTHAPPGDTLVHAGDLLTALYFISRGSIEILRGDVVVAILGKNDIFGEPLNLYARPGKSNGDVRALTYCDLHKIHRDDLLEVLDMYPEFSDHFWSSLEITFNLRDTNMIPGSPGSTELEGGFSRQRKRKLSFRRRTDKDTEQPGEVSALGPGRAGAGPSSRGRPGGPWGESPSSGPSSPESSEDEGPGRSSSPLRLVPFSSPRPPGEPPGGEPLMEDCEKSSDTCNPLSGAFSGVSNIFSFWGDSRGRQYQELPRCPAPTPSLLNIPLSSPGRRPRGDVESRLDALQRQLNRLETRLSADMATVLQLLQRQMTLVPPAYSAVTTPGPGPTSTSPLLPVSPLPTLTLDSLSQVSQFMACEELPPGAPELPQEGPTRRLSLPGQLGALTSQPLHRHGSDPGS

Regarding `Fc1cc(F)cc(CN2CCC(Nc3ncnc4sc(Cl)cc34)CC2)c1` [Example B33, N-(1-(3,5-difluorobenzyl)piperidin-4-yl)-6-chlorothieno[2,3-d]pyrimidin-4-amine, dihydrochloride], the “hERG (% Inhibition at 1 uM)” value in data set [1] is reported as “hERG (% Inhibition at 1 uM): 22.8”. Moreover, in data set [2], the half-life – broadly, how long it takes for the measured level to halve – amounted to 13 min.

As for `Cc1sc2ncnc(NC3CCN(Cc4ccccc4C#N)CC3)c2c1C` [Example B36, 2-((4-(5,6-dimethylthieno[2,3-d]pyrimidin-4-ylamino)piperidin-1-yl)methyl)benzonitrile, dihydrochloride], the “hERG (% Inhibition at 1 uM)” value in data set [1] is “hERG (% Inhibition at 1 uM): 21.7”. In the case of `Cc1c(Cl)sc2ncnc(NC3CCN(Cc4ccccc4C#N)CC3)c12` [Example B39, 2-((4-(6-chloro-5-methylthieno[2,3-d]pyrimidin-4-ylamino)piperidin-1-yl)methyl) benzonitrile, dihydrochloride], in data set [2], the half-life is below 15 min. As to `Cc1csc2ncnc(NC3CCN(Cc4ccccc4)CC3)c12` [Example B9, N-(1-benzylpiperidin-4-yl)-5-methylthieno [2,3-d]pyrimidin-4-amine], in data set [3], the “% at 10 nM (5HT2B)” value is given as 15%, the “% at 100 nM (5HT2B)” value amounted to 62% and the “% at 1000 nM (5HT2B)” value was 97%. Taken in the same sequence, the figures for `CN1CCC(N(C)c2ncnc3sc4c(c23)CCCC4)CC1` [Example B5, N-methyl-N-(1-methylpiperidin-4-yl)5,6,7,8-tetrahydro-benzo[4,5] thieno[2,3-d]pyrimidin-4-amine] were -2%, 11% and 67%. `CC(C)Cc1cc2c(NC3CCN(C(C)c4c(F)cc(F)cc4F)CC3)ncnc2s1` (stereo not shown) [Example B19, N-(1-(1-(2,4,6-trifluorophenyl)ethyl)piperidin-4-yl)-6-isobutylthieno[2,3-d]pyrimidin-4-amine, dihydrochloride]: the “hERG (% Inhibition at 1 uM)” value in data set [1] is given as “hERG (% Inhibition at 1 uM): 50.2”. This molecule also showed a half-life in data set [2] below 15 min.

In data set [2], `CC(C)(c1cccc(F)c1)N1CCC(Nc2ncnc3sc4c(c23)CCCC4)CC1` [Example B24, N-(1-(2-(3-fluorophenyl)propan-2-yl)piperidin-4-yl)5,6,7,8-tetrahydro-benzo[4,5]thieno[2,3-d]pyrimidin-4-amine, dihydrochloride] returned a half-life below 15 min. `Clc1cccc(CN2CCC(Nc3ncnc4sc(Cl)cc34)CC2)c1` [Example B52, N-(1-(3-chlorobenzyl)piperidin-4-yl)-6-chlorothieno[2,3-d]pyrimidin-4-amine, monomaleate] registered a half-life in data set [2] of 11 min. In the case of `Fc1ccccc1CN1CCC(Nc2ncnc3sc(Cl)cc23)CC1` [Example B46, N-(1-(2-fluorobenzyl)piperidin-4-yl)-6-chlorothieno[2,3-d]pyrimidin-4-amine, monomaleate], the “hERG (% Inhibition at 1 uM)” value in data set [1] is “hERG (% Inhibition at 1 uM): 39.5”. The same molecule registered a half-life in data set [2] below 15 min.

Consider `Fc1cccc(CN2CCC(Nc3ncnc4sc(Cl)cc34)CC2)c1` [Example B41, N-(1-(3-fluorobenzyl)piperidin-4-yl)-6-chlorothieno[2,3-d]pyrimidin-4-amine, dihydrochloride], for which, in data set [2], the half-life turned out to be 10 min. For `Fc1ccccc1CN1CCC(Nc2ncnc3sc4c(c23)CCCC4)CC1` [Example B4, N-(1-(2-fluorobenzyl)piperidin-4-yl)5,6,7,8-tetrahydro-benzo[4,5]thieno[2,3-d]pyrimidin-4-amine], the “hERG (% Inhibition at 1 uM)” value in data set [1] is recorded as “hERG (% Inhibition at 1 uM): 58.5”. For the molecule `c1ccc(CN2CCC(Nc3ncnc4sccc34)CC2)cc1` [Example B8, N-(1-benzylpiperidin-4-yl)thieno [2,3-d]pyrimidin-4-amine], in data set [3], the “% at 10 nM (5HT2B)” value was determined as 13%, the “% at 100 nM (5HT2B)” value is given as 62% and the “% at 1000 nM (5HT2B)” value was 96%.

`COc1ccccc1CN1CCC(Nc2ncnc3sc(Cl)c(C)c23)CC1` [Example B40, N-(1-(2-methoxybenzyl)piperidin-4-yl)-6-chloro-5-methylthieno[2,3-d] pyrimidin-4-amine, dihydrochloride]: in data set [2], the half-life is below 15 min. On the same count and under the same terms, next, `FC(F)(F)c1cccc(CN2CCC(Nc3ncnc4sc(Cl)cc34)CC2)c1` [Example B54, N-(1-(3-(trifluoromethyl)benzyl)piperidin-4-yl)-6-chlorothieno[2,3-d]pyrimidin-4-amine, monomaleate]: 16 min; `Clc1cc2c(NC3CCN(Cc4cncnc4)CC3)ncnc2s1` [Example B49, 6-chloro-N-(1-((pyrimidin-5-yl)methyl)piperidin-4-yl)thieno[2,3-d] pyrimidin-4-amine, monomaleate]: 60 min. For `Cc1sc2ncnc(NC3CCN(CC4CCCCC4)CC3)c2c1C` [Example B35, N-(1-(cyclohexylmethyl)piperidin-4-yl)-5,6-dimethylthieno[2,3-d]pyrimidin-4-amine, dihydrochloride], the “hERG (% Inhibition at 1 uM)” value in data set [1] is recorded as “hERG (% Inhibition at 1 uM): 91.7”. In addition, the half-life in data set [2] is below 15 min.

In data set [2], `NC(=O)c1cccc(CN2CCC(Nc3ncnc4sc(Cl)cc34)CC2)c1` [Example B45, 3-((4-(6-chlorothieno [2,3-d]pyrimidin-4-ylamino)piperidin-1-yl)methyl) benzamide, monomaleate] displayed a half-life of 86 min. The same measure, in the same setting: with `CC(c1cccc(F)c1)N1CCC(C)(Nc2ncnc3sc4c(c23)CCCC4)CC1` (stereo not shown) [Example B15, N-(1-(1-(3-fluorophenyl)ethyl)-4-methylpiperidin-4-yl) 5,6,7,8-tetrahydro-benzo[4,5]thieno[2,3-d]pyrimidin-4-amine, dihydrochloride] the figure was below 15 min. Same read-out and setting: with `CC(C)Cc1cc2c(NCCCNC(C)c3cccc(F)c3)ncnc2s1` (stereo not shown) [Example B27, N-(3-(1-(3-fluorophenyl)ethylamino)propyl)-6-isobutylthieno[2,3-d]pyrimidin-4-amine, dihydrochloride] the figure was below 15 min. The same measure, in the same setting: with `Fc1cccc(C(N2CCC(Nc3ncnc4sc5c(c34)CCCC5)CC2)C(F)(F)F)c1` (stereo not shown) [Example B28, N-(1-(2,2,2-trifluoro-1-(3-fluorophenyl)ethyl)piperidin-4-yl)5,6,7,8-tetrahydro-benzo[4,5]thieno[2,3-d]pyrimidin-4-amine, dihydrochloride] the figure was 11 min.

In data set [2], `CC(C)CC(c1cccc(F)c1)N1CCC(Nc2ncnc3sc4c(c23)CCCC4)CC1` (stereo not shown) [Example B16, N-(1-(1-(3-fluorophenyl)-3-methylbutyl)piperidin-4-yl)5,6,7,8-tetrahydro-benzo[4,5]thieno[2,3-d] pyrimidin-4-amine, dihydrochloride] returned a half-life below 15 min. Molecule `CC(NCCCNc1ncnc2sc3c(c12)CCCC3)c1cccc(F)c1` (stereo not shown) [Example B26, N-(3-(1-(3-fluorophenyl)ethylamino)propyl) 5,6,7,8-tetrahydro-benzo[4,5]thieno[2,3-d] pyrimidin-4-amine, dihydrochloride] had a half-life in data set [2] below 15 min. Still for that read-out and setting: with `Cc1sc2ncnc(NC3CCN(C(C)c4cccc(F)c4)CC3)c2c1C` (stereo not shown) [Example B13, N-(1-(1-(3-fluorophenyl)ethyl)piperidin-4-yl)-5,6-dimethylthieno[2,3-d] pyrimidin-4-amine, dihydrochloride] the figure was below 15 min.

In data set [2], `CC(C#N)(c1cccc(F)c1)N1CCC(Nc2ncnc3sc4c(c23)CCCC4)CC1` (stereo not shown) [Example B23, 2-(3-fluorophenyl)-2-(4-(5,6,7,8-tetrahydro-benzo[4,5]thieno[2,3-d]pyrimidin-4-ylamino)piperidin-1-yl) propanenitrile, dihydrochloride] yielded a half-life below 15 min.

Molecule `CC(c1c(F)cccc1F)N1CCC(Nc2ncnc3sc4c(c23)CCCC4)CC1` (stereo not shown) [Example B21, N-(1-(1-(2,6-difluorophenyl)ethyl)piperidin-4-yl)5,6,7,8-tetrahydro-benzo[4,5]thieno[2,3-d]pyrimidin-4-amine, dihydrochloride] showed a half-life in data set [2] below 15 min. Still for that read-out and setting: next, `N#Cc1ccc(F)c(CN2CCC(Nc3ncnc4sc(Cl)cc34)CC2)c1` [Example B51, 3-((4-(6-chlorothieno [2,3-d]pyrimidin-4-ylamino)piperidin-1-yl)methyl)-4-fluorobenzonitrile, monomaleate]: 10 min. The same measure, in the same setting: with `CC(C)Cc1cc2c(N3CCC(NCc4cc(F)cc(F)c4)CC3)ncnc2s1` [Example B29, N-(3,5-difluorobenzyl)-1-(6-isobutylthieno[2,3-d]pyrimidin-4-yl) piperidin-4-amine, dihydrochloride] the figure was 18 min; with `Cc1c(Cl)sc2ncnc(NC3CCN(Cc4cccc(F)c4)CC3)c12` [Example B37, N-(1-(3-fluorobenzyl)piperidin-4-yl)-6-chloro-5-methylthieno[2,3-d]pyrimidin-4-amine, dihydrochloride], 11 min.

Consider `CC(c1cccc(F)c1)N1CCC(Nc2ncnc3sc4c(c23)CCCC4)CC1` (stereo not shown) [Example B10, N-(1-(1-(3-fluorophenyl)ethyl)piperidin-4-yl)-(5,6,7,8-tetrahydro-benzo[4,5]thieno[2,3-d]pyrimidin-4-amine, dihydrochloride], for which the half-life in data set [2] was below 15 min. Take `CC(C)Cc1cc2c(NC3CCN(C(C)c4c(F)cccc4F)CC3)ncnc2s1` (stereo not shown) [Example B20, N-(1-(1-(2,6-difluorophenyl)ethyl)piperidin-4-yl)-6-isobutylthieno[2,3-d] pyrimidin-4-amine, dihydrochloride]: the “hERG (% Inhibition at 1 uM)” value in data set [1] was “hERG (% Inhibition at 1 uM): 73.4”. In data set [2], this molecule displayed a half-life below 15 min.

`CC(C)c1c(Cl)sc2ncnc(NC3CCN(Cc4cccc(F)c4)CC3)c12` [Example B53, N-(1-(3-fluorobenzyl)piperidin-4-yl)-6-chloro-5-isopropylthieno[2,3-d]pyrimidin-4-amine, monomaleate]: in data set [2], the half-life was found to be 8 min.

`Fc1cccc(CNCCCNc2ncnc3sc4c(c23)CCCC4)c1` [Example B25, N-(3-(3-fluorobenzylamino)propyl)5,6,7,8-tetrahydro-benzo[4,5]thieno[2,3-d]pyrimidin-4-amine, dihydrochloride] showed a half-life in data set [2] below 15 min.
